#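 How tested: cells in 96-well plates exposed to compound for 48 hours at five concentrations. TGI is the concentration that stops growth completely.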 Where a SMILES comes first, the peptide text is derived from it. The star is where a group is joined. Cbz = O=C(OCc1ccccc1)*; Boc = CC(C)(C)OC(=O)*; OSu = O=C1CCC(=O)N1O*; Bn = c1ccc(C*)cc1
# Key:
# Test in all cases: growth of human tumour cells (NCI), 48 h
# SR leukemia = tested on: SR leukemia
# M14 melanoma = tested on: M14 melanoma
# PC-3 prostate = tested on: PC-3 prostate
# CCRF-CEM leukemia = tested on: CCRF-CEM leukemia
# MALME-3M melanoma = tested on: MALME-3M melanoma
# T-47D breast = tested on: T-47D breast
# MDA-N = tested on: MDA-N
# RXF 393 renal = tested on: RXF 393 renal
# OVCAR-3 ovarian = tested on: OVCAR-3 ovarian
# NCI-H23 lung = tested on: NCI-H23 lung
# KM12 colon = tested on: KM12 colon
# HOP-92 NSCLC = tested on: HOP-92 NSCLC
# OVCAR-5 ovarian = tested on: OVCAR-5 ovarian
# BT-549 breast = tested on: BT-549 breast
Structure (SMILES),TGI (SR leukemia),TGI (M14 melanoma),TGI (PC-3 prostate),TGI (CCRF-CEM leukemia),TGI (MALME-3M melanoma),TGI (T-47D breast),TGI (MDA-N),TGI (RXF 393 renal),TGI (OVCAR-3 ovarian),TGI (NCI-H23 lung),TGI (KM12 colon),TGI (HOP-92 NSCLC),TGI (OVCAR-5 ovarian),TGI (BT-549 breast)
C/C(Nc1ccc(Cl)cc1)=C1/CCOC1=O,> 100 µM,> 100 µM,> 100 µM,> 100 µM,> 100 µM,> 100 µM,> 100 µM,> 100 µM,> 100 µM,> 100 µM,> 100 µM,> 100 µM,> 100 µM,> 100 µM
COC(=O)[C@@H]1COC(=O)N1,,> 100 µM,> 100 µM,> 100 µM,> 100 µM,> 100 µM,> 100 µM,> 100 µM,> 100 µM,> 100 µM,> 100 µM,> 100 µM,> 100 µM,> 100 µM
Cc1ccc(NCCN(C)C)c2c(=O)c3cc(O)ccc3sc12,4.79 µM,10.4 µM,11.1 µM,5.7 µM,11.2 µM,28.4 µM,4.58 µM,4.8 µM,18.6 µM,16.8 µM,11.4 µM,14.4 µM,29.6 µM,20.3 µM
COc1ccc(/C=N/NC(=S)Nc2cc(C)ccc2OC)cc1,41.9 µM,65.6 µM,> 100 µM,> 100 µM,65.2 µM,> 100 µM,70.7 µM,> 100 µM,> 100 µM,73.8 µM,> 100 µM,72 µM,73 µM,88.8 µM
COc1ccc(CC[N+]2(C)COc3cc4oc(=O)cc(C)c4cc3C2)cc1OC (stereo not given),> 100 µM,> 100 µM,> 100 µM,> 100 µM,> 100 µM,> 100 µM,> 100 µM,> 100 µM,> 100 µM,> 100 µM,> 100 µM,> 100 µM,> 100 µM,> 100 µM
CC(C)(C)OC(=O)NC(Cc1ccc(OCc2ccccc2)cc1)C(=O)NC(CCCCNC(=O)OCc1ccccc1)C(=O)NC(CCCCNC(=O)OCc1ccccc1)C(=O)ON1C(=O)CCC1=O (stereo not given) (Boc-Tyr(Bn)-Lys(Cbz)-Lys(Cbz)-OSu; configuration not given here),> 100 µM,> 100 µM,,> 100 µM,> 100 µM,> 100 µM,45.4 µM,> 100 µM,,> 100 µM,> 100 µM,> 100 µM,> 100 µM,33.2 µM
Cc1cc(C)n2c(nc3ccccc32)c1C#N,,> 100 µM,> 100 µM,> 100 µM,> 100 µM,> 100 µM,> 100 µM,> 100 µM,> 100 µM,> 100 µM,,79.8 µM,> 100 µM,> 100 µM
O=C1/C(=C/c2ccc(Cl)cc2)Oc2ccccc21,> 100 µM,> 100 µM,,> 100 µM,,90.3 µM,> 100 µM,54.8 µM,> 100 µM,73.1 µM,> 100 µM,,,> 100 µM
S=c1[nH]n2c(COc3cc(Cl)c(OCc4nnc5sc(=S)[nH]n45)cc3Cl)nnc2s1,> 100 µM,> 100 µM,> 100 µM,,> 100 µM,> 100 µM,> 100 µM,> 100 µM,> 100 µM,> 100 µM,> 100 µM,> 100 µM,> 100 µM,> 100 µM
C[n+]1c2ccccc2c(C(=O)Nc2ccc(S(=O)(=O)Nc3ncccn3)cc2)c2ccccc21,> 100 µM,> 100 µM,> 100 µM,,> 100 µM,> 100 µM,> 100 µM,,> 100 µM,> 100 µM,> 100 µM,,> 100 µM,> 100 µM
Cc1ncc(CSC(=N)N)n1Cc1ccccc1,,> 100 µM,> 100 µM,,> 100 µM,> 100 µM,> 100 µM,> 100 µM,> 100 µM,> 100 µM,> 100 µM,> 100 µM,> 100 µM,> 100 µM
CCCCCCCc1ccc(-c2nnc(N=Nc3ccc(OCCCCC)cc3)s2)s1,,> 100 µM,> 100 µM,> 100 µM,> 100 µM,> 100 µM,> 100 µM,> 100 µM,> 100 µM,> 100 µM,> 100 µM,,> 100 µM,> 100 µM
CC(=O)N[C@@H](Cc1ccc(O)cn1)C(=O)NC1CCCCC1,> 100 µM,> 100 µM,> 100 µM,> 100 µM,,> 100 µM,> 100 µM,,> 100 µM,> 100 µM,> 100 µM,> 100 µM,> 100 µM,> 100 µM
COc1cccc(N=NN2CCCC2)c1,> 100 µM,> 100 µM,> 100 µM,> 100 µM,,> 100 µM,> 100 µM,> 100 µM,> 100 µM,> 100 µM,> 100 µM,> 100 µM,> 100 µM,> 100 µM
CC(=O)[C@]1(O)Cc2c(O)c3c(c(O)c2[C@@H](OC2CC(N)C(O)C(C)O2)C1)C(=O)c1c(OCc2ccccc2)cccc1C3=O (stereo not given in full),0.468 µM,2.89 µM,2.64 µM,1.45 µM,20.1 µM,8.11 µM,2.98 µM,15.1 µM,6.87 µM,6.9 µM,,22.6 µM,5.12 µM,21.2 µM
O=c1c2cc(I)ccc2nc(-c2cccs2)n1O,> 100 µM,> 100 µM,> 100 µM,95.2 µM,,77.5 µM,> 100 µM,> 100 µM,42.8 µM,> 100 µM,> 100 µM,79.6 µM,> 100 µM,> 100 µM
Clc1cc2ncn(C3CCCCO3)c2cc1Cl (stereo not given),> 100 µM,> 100 µM,> 100 µM,> 100 µM,> 100 µM,> 100 µM,> 100 µM,> 100 µM,> 100 µM,> 100 µM,> 100 µM,,> 100 µM,84.5 µM
